In US20160207951A1, “ORGANOMETALLIC COMPOUNDS FOR USE AS ANTHELMINTICS” (UNIVERSITÄT ZÜRICH, priority 2013, published 2016):
Like-named read-outs stand apart in the source and are kept apart here.

Legend:
Haemonchus contortus = assay: activity in vitro against Haemonchus contortus (egg hatch and larval development)
[1] = test system: Trichostrongylus colubriformis; assay: activity in vitro against Trichostrongylus colubriformis (egg hatch and larval development); design: dose or concentration left out as unconfirmed
C. elegans = C. elegans movement inhibition assay
Protocol: Asynchronous N2 C. elegans worms (Bristol) were maintained on nematode growth medium (NGM) agar, seeded with a lawn on OP50 E. coli as a food-source, according to standard protocol (Maintenance of C. elegans; Stiernagle, T., Ed.; WormBook, 2006.). Worms were harvested from NGM plates by washing with M9 buffer (42 mmol/l Na2HPO4, 22 mmol/l KH2PO4, 86 mmol/l NaCl and 1 mmol/MgSO4), aspiration and collection in a 10 mL tube (Falcon). The average number of worms in 5 μL of this suspension was calculated by transferring 4×5 μL aliquots to a glass slide (Menzel Glaser), and worms were enumerated under a compound microscope (Olympus CH30). To adjust the suspension to contain 1 worm per μL, M9 buffer was either added or removed after pelleting worms at 600×g for 30 sec.
A volume of 70 μL of M9 buffer was added to each well in a 96-well plate, using a multichannel pipettor. A volume of 20 μL of worm suspension was added to each well using a single-channel pipettor, with a trimmed pipette tip (increased aperture to minimize damage to worms). The worm suspension was resuspended by flicking after every three wells to maintain consistency. The compounds were stored at 4° C., and diluted in dimethyl sulfoxide (DMSO) to achieve a 100 mmol/l concentration 1 hr prior to addition to assay. These stock solutions were diluted further in DMSO to create a series of 20 mmol/l, 2 mmol/l, 0.02 mmol/l and 0.002 mmol/l which were subsequently diluted 1:20 in M9 buffer to create 1 mmol/l, 0.1 mmol/l, 1 μmol/l and 0.1 μmol/l (all 5% (v/v) DMSO). […] A Zolvix (monepantel) dilution series was simultaneously created following the same dilution schema, and used as a positive control; 10 μL of 10% DMSO was added to achieve 1% DMSO vehicle control. 10 μL M9 was added to negative control wells (see FIG. 1). Plates were incubated at room temperature (22-24° C.) overnight at 20° C.
Immobile worms were counted as a percentage of total worms in each well using an Olympus SZ30 dissecting microscope. The immobile fraction was subtracted from the total, and this remainder was divided by the total to give a percentage of live worms per well.

Dirofilaria immitis = assay: activity in vitro against Dirofilaria immitis microfilariae (motility); design: dose or concentration left out as unconfirmed
H. contortus = assay: larval development assay, number of L3 H. contortus; design: species or system Haemonchus contortus
[2] = test system: human lung fibroblasts MRC-5; assay: fluorometric cell viability assay (Resazurin) in MRC-5; conditions: read-out: IC50 in MRC-5
Protocol: (§1) Human cervical carcinoma cells (HeLa) were cultured in DMEM (Gibco) supplemented with 5% fetal calf serum (FCS, Gibco), 100 U/ml penicillin, 100 μg/ml streptomycin at 37° C. and 5% CO2. The normal human fetal lung fibroblast MRC-5 cell line was maintained in F-10 medium (Gibco) supplemented with 10% FCS (Gibco), 200 mmol/l L-Glutamine, 100 U/ml penicillin, and 100 μg/ml streptomycin at 37° C. and 5% CO2. To establish the anticancer potential of the compounds they were tested in one cell line, namely HeLa by a fluorometric cell viability assay using Resazurin (Promocell GmbH). […] 1 day before treatment, cells were plated in triplicates in 96-well plates at a density of 4×10^3 cells/well in 100 μl for HeLa and 7×10^3 cells/well for MRC-5 cells. Cells were treated with increasing concentrations of the compounds for 2 days. After 2 days, medium and drug were removed and 100 ml fresh medium containing Resazurin (0.2 mg/ml final concentration) were added. After 4 h of incubation at 37′C, the highly red fluorescent dye resorufin's fluorescence was quantified at 590 nm emission with 540 nm excitation wavelength in the SpectraMax M5 microplate Reader.

[3] = test system: human cervical cancer HeLa; assay: fluorometric cell viability assay (Resazurin) in HeLa; conditions: read-out: IC50 in HeLa
Protocol: as §1

[4] = MRC-5 cells, treated for 2 days, Resazurin
[5] = HeLa cells, treated for 2 days, Resazurin

## N-(2-cyano-1-hydroxypropan-2-yl)ruthenoceneamide [Compound 41]
Haemonchus contortus
  Activity against Haemontus Contortus at 10 [mg/mL]: 0%
[1]
  Activity against Trychostrongylus colubriformis at 10 [mg/mL]: 0%

## O=[C]=[Co]12(=[C]=O)(=[C]=O)[CH]3[C]1(CNC(=O)c1ccc(SC(F)(F)F)cc1)[Co]32(=[C]=O)(=[C]=O)=[C]=O (centres unmarked) [Compound 4]
C. elegans
  Mobility in C. elegans at 50 μM: 2%
Dirofilaria immitis
  Activity against Dirofilaria immitis at 10 [mg/mL]: 68%
[1]
  Activity against Trychostrongylus colubriformis at 10 [mg/mL]: 44%
H. contortus
  Number of L3 H. contortus/100 μM: 76.7

## O=C(NC[c-]1cccc1CO)c1ccc(SC(F)(F)F)cc1.[Fe+2].c1cc[cH-]c1 (centres unmarked) [Compound 3]
C. elegans
  Mobility in C. elegans at 50 μM: 4%
Haemonchus contortus
  Activity against Haemontus Contortus at 10 [mg/mL]: 24%
[2]; [4]
  IC50: 44.6 µM
Dirofilaria immitis
  Activity against Dirofilaria immitis at 10 [mg/mL]: 0%
[1]
  Activity against Trychostrongylus colubriformis at 10 [mg/mL]: 13%
H. contortus
  Number of L3 H. contortus/100 μM: >100
[3]; [5]
  IC50: 20 µM

## 2-(hydroxymethyl)ferrocenecarboxaldehydeoxime [Compound 29]
Haemonchus contortus
  Activity against Haemontus Contortus at 10 [mg/mL]: 47%
Dirofilaria immitis
  Activity against Dirofilaria immitis at 10 [mg/mL]: 12%
[1]
  Activity against Trychostrongylus colubriformis at 10 [mg/mL]: 49%

## 2-(Hydroxymethyl)ruthenocenecarboxaldehyde oxime [Compound 32]
Haemonchus contortus
  Activity against Haemontus Contortus at 10 [mg/mL]: 35%
Dirofilaria immitis
  Activity against Dirofilaria immitis at 10 [mg/mL]: 12%
[1]
  Activity against Trychostrongylus colubriformis at 10 [mg/mL]: 33%

## N#Cc1ccc(C(F)(F)F)c(OCc2ccc[c-]2CNC(=O)c2ccc(SC(F)(F)F)cc2)c1.[Fe+2].c1cc[cH-]c1 (centres unmarked) [Compound 6, N-(2-((5-cyano-2-(trifluormethyl)phenoxy)methyl)ferrocenyl)-4-((trifluoromethyl)thio)benzamide]
C. elegans
  Mobility in C. elegans at 50 μM: 1%
Haemonchus contortus
  Activity against Haemontus Contortus at 10 [mg/mL]: 20%
[2]; [4]
  IC50: 26.7 µM
[1]
  Activity against Trychostrongylus colubriformis at 10 [mg/mL]: 31%
H. contortus
  Number of L3 H. contortus/100 μM: >100
[3]; [5]
  IC50: 27.2 µM

## CC(C#N)(CO)NC(=O)[c-]1cccc1.[Fe+2].c1cc[cH-]c1 (centres unmarked) [Compound 10]
C. elegans
  Mobility in C. elegans at 50 μM: 4%
[1]
  Activity against Trychostrongylus colubriformis at 10 [mg/mL]: 57%
H. contortus
  Number of L3 H. contortus/100 μM: >100

## O=C[c-]1cccc1CO.[Fe+2].c1cc[cH-]c1 (centres unmarked) [Compound 31, 2-(Hydroxymethylferrocene)carboxaldehyde]
Haemonchus contortus
  Activity against Haemontus Contortus at 10 [mg/mL]: 40%
[1]
  Activity against Trychostrongylus colubriformis at 10 [mg/mL]: 37%

## CN(C)Cc1ccc[c-]1C=O.[Fe+2].c1cc[cH-]c1 (centres unmarked) [Compound 27, 2-(N,N-dimethylaminomethylferrocene)carboxaldehyde]
Haemonchus contortus
  Activity against Haemontus Contortus at 10 [mg/mL]: 39%
Dirofilaria immitis
  Activity against Dirofilaria immitis at 10 [mg/mL]: 18%
[1]
  Activity against Trychostrongylus colubriformis at 10 [mg/mL]: 44%

## Thiocyanatoruthenocene [Compound 39]
Haemonchus contortus
  Activity against Haemontus Contortus at 10 [mg/mL]: 0%
Dirofilaria immitis
  Activity against Dirofilaria immitis at 10 [mg/mL]: 66%
[1]
  Activity against Trychostrongylus colubriformis at 10 [mg/mL]: 0%

## CC(=O)OCc1ccc[c-]1C=O.[Ru+2].c1cc[cH-]c1 (centres unmarked) [Compound 36, 2-(Acetoxymethylruthenocene)carboxaldehyde]
Haemonchus contortus
  Activity against Haemontus Contortus at 10 [mg/mL]: 52%
Dirofilaria immitis
  Activity against Dirofilaria immitis at 10 [mg/mL]: 11%
[1]
  Activity against Trychostrongylus colubriformis at 10 [mg/mL]: 54%

## O=C(NCC#CCO)c1ccc(SC(F)(F)F)cc1 [Compound 14, N-(4-hydroxybut-2-yn-1-yl)-4-((trifluoromethyl)thio)benzamide]
Haemonchus contortus
  Activity against Haemontus Contortus at 10 [mg/mL]: 32%
Dirofilaria immitis
  Activity against Dirofilaria immitis at 10 [mg/mL]: 46%
[1]
  Activity against Trychostrongylus colubriformis at 10 [mg/mL]: 51%
[3]; Homo sapiens, HeLa, 48 h
  IC50: > 100 µM

## Trifluoromethylthioferrocene [Compound 38]
Haemonchus contortus
  Activity against Haemontus Contortus at 10 [mg/mL]: 0%
Dirofilaria immitis
  Activity against Dirofilaria immitis at 10 [mg/mL]: 31%
[1]
  Activity against Trychostrongylus colubriformis at 10 [mg/mL]: 0%

## N-ferrocenyl-4-((trifluoromethyl)thio)benzamide [Compound 2]
C. elegans
  Mobility in C. elegans at 50 μM: 0%
[2]; [4]
  IC50: 42 µM
Dirofilaria immitis
  Activity against Dirofilaria immitis at 10 [mg/mL]: 69%
[1]
  Activity against Trychostrongylus colubriformis at 10 [mg/mL]: 80%
H. contortus
  Number of L3 H. contortus/100 μM: >100
[3]; [5]
  IC50: 17.6 µM

## N#Cc1ccc(C(F)(F)F)c(OCC#CCNC(=O)c2ccc(SC(F)(F)F)cc2)c1 [Compound 13, N-(4-(5-cyano-2-(trifluoromethyl)phenoxy)but-2-yn-1-yl)-4-((trifluoromethyl)thio)benzamide]
Haemonchus contortus
  Activity against Haemontus Contortus at 10 [mg/mL]: 52%
[2]; Homo sapiens, MRC5, 48 h
  IC50: 96.4 µM
Dirofilaria immitis
  Activity against Dirofilaria immitis at 10 [mg/mL]: 19%
[1]
  Activity against Trychostrongylus colubriformis at 10 [mg/mL]: 49%
[3]; Homo sapiens, HeLa, 48 h
  IC50: 30.6 µM

## 2-(hydroxymethyl)ferrocenylmethylamine [Compound 30]
Haemonchus contortus
  Activity against Haemontus Contortus at 10 [mg/mL]: 24%
Dirofilaria immitis
  Activity against Dirofilaria immitis at 10 [mg/mL]: 0%
[1]
  Activity against Trychostrongylus colubriformis at 10 [mg/mL]: 11%

## C#CCNC(=O)c1ccc(SC(F)(F)F)cc1 [Compound 15]
C. elegans
  Mobility in C. elegans at 50 μM: 3%
Haemonchus contortus
  Activity against Haemontus Contortus at 10 [mg/mL]: 51%
Dirofilaria immitis
  Activity against Dirofilaria immitis at 10 [mg/mL]: 28%
[1]
  Activity against Trychostrongylus colubriformis at 10 [mg/mL]: 51%
H. contortus
  Number of L3 H. contortus/100 μM: >100

## N#Cc1ccc(C(F)(F)F)c(OC[C]23[C]4(CNC(=O)c5ccc(SC(F)(F)F)cc5)[Co]2(=[C]=O)(=[C]=O)(=[C]=O)[Co]43(=[C]=O)(=[C]=O)=[C]=O)c1 (centres unmarked) [Compound 7, Dicobalthexacarbonyl-N-(4-(5-cyano-2-(trifluoromethyl)phenoxy)but-2-en-1-yl)-4-((trifluoromethyl)thio)benzamide]
Haemonchus contortus
  Activity against Haemontus Contortus at 10 [mg/mL]: 63%
Dirofilaria immitis
  Activity against Dirofilaria immitis at 10 [mg/mL]: 100%
[1]
  Activity against Trychostrongylus colubriformis at 10 [mg/mL]: 25%
[3]; [5]
  IC50: 26.8 µM

## I[c-]1cccc1.N#CS[c-]1cccc1.[Ru+2] [Compound 40, 1,1′-Thiocyanatoiodruthenocene]
Dirofilaria immitis
  Activity against Dirofilaria immitis at 10 [mg/mL]: 98%
[1]
  Activity against Trychostrongylus colubriformis at 10 [mg/mL]: 55%

## O=[C]=[Co]12(=[C]=O)(=[C]=O)[C]3(CO)[C]1(CNC(=O)c1ccc(SC(F)(F)F)cc1)[Co]32(=[C]=O)(=[C]=O)=[C]=O (centres unmarked) [Compound 5]
Haemonchus contortus
  Activity against Haemontus Contortus at 10 [mg/mL]: 64%
Dirofilaria immitis
  Activity against Dirofilaria immitis at 10 [mg/mL]: 45%
[1]
  Activity against Trychostrongylus colubriformis at 10 [mg/mL]: 77%

## CC(=O)OCc1ccc[c-]1C=O.[Fe+2].c1cc[cH-]c1 (centres unmarked) [Compound 28, 2-(acetoxymethylferrocene)carboxaldehyde]
Haemonchus contortus
  Activity against Haemontus Contortus at 10 [mg/mL]: 14%
Dirofilaria immitis
  Activity against Dirofilaria immitis at 10 [mg/mL]: 15%
[1]
  Activity against Trychostrongylus colubriformis at 10 [mg/mL]: 6%
